Common to all, as to type: in vivo
Experiment [1] relates to Fmr1-KO mice. Nature of the experiment: Social interaction test. Conditions: 28-30 post-natal days, 0.25 mg/kg BW intraperitoneal. How it is done: The experiments were performed following the ARRIVE (Animals in Research: Reporting In Vivo Experiments) guidelines. Fmr1-knockout (KO) and WT mice on a C57BL/6J congenic background were obtained from Prof. R. Willemsen. All animals were generated and housed in groups of 4 in standard laboratory conditions (22° C., 55±10% humidity, 12-h light/12-h dark diurnal cycles) with food and water provided ad libitum. Experimental testing was performed between 12:00 and 16:30 each day during the 12-h light period. Only male mice and rats were used. Animal care was conducted in accordance with the European Community Directive 2010/63/EU. The experiments were approved by the local ethics committee (Comité d'Ethique en Expérimentation Animale, by the French Ministry of Research. Trimeprazine and opipramol were purchased from Prestwich Library. Both molecules were diluted in DMSO at the stock concentration of 100 mM. All compounds injected intraperitoneally were administered in a volume of 1.5 ml per kg body weight at the amount indicated in the legends of each figure. Social Interaction Test: The 28-30-day-old mice were individually habituated to the experimental apparatus (a Plexiglas cage measuring 30×30×30 cm) for 5 min the day before testing. On the test day, the animals were isolated for 2 h before testing, to enhance their social motivation and thus facilitate the expression of social interaction during testing. The test consisted of placing 2 animals (same treatment and weight) into the test cage for 10 min. The behaviour of the animals was recorded using a video camera with zoom lens, DVD recorder and LCD monitor. Behaviour was assessed per single animal and analyzed by a trained observer who was unaware of genotype and treatment conditions using the Observer XT software (Noldus, The Netherlands). The following parameters were scored: a. Social Activities: • 1. Social sniffing: sniffing any part of the body of the partner, including the anogenital area. • 2. Following: moving in the direction of or pursuing the partner, who moves away. • 3. Mutual circle: partners are mutually sniffing each other's anogenital region, while describing tight circles with their reciprocal following movements. • 4. Pushing past: the focal animal passes between the wall of the cage and the body of the partner by pushing its own body through the narrow space available. • 5. Crawling under/over: the focal animal crawls underneath or over the partner's body, crossing it transversely from one side to the other. • 6. Social grooming: chewing and licking the fur of the partner. • 7. Social rest: the focal animal is being groomed by the partner. • 8. […] The average frequency of total social activities, quantified as number of events during the 10 min testing session, was graphed.

Experiment [2] relates to Fmr1-KO mice. Description: Novel object recognition test (working memory). How it is done: The experiments were performed following the ARRIVE (Animals in Research: Reporting In Vivo Experiments) guidelines. Fmr1-knockout (KO) and WT mice on a C57BL/6J congenic background were obtained from Prof. R. Willemsen. All animals were generated and housed in groups of 4 in standard laboratory conditions (22° C., 55±10% humidity, 12-h light/12-h dark diurnal cycles) with food and water provided ad libitum. Experimental testing was performed between 12:00 and 16:30 each day during the 12-h light period. Only male mice and rats were used. Animal care was conducted in accordance with the European Community Directive 2010/63/EU. The experiments were approved by the local ethics committee (Comité d′Ethique en Expérimentation Animale, by the French Ministry of Research. Trimeprazine and opipramol were purchased from Prestwich Library. Both molecules were diluted in DMSO at the stock concentration of 100 mM. All compounds injected intraperitoneally were administered in a volume of 1.5 ml per kg body weight at the amount indicated in the legends of each figure. On day 1 and 2, mice were habituated for 10 min to the maze in which the task was performed. On the third day, mice were put back in the maze for 10 min, two identical objects were presented and the time that the mice spent exploring each object was recorded. The mice were again placed in the maze 5 minutes later for 10 min, one of the familiar objects was replaced with a novel object and the total time spent exploring each of the two objects (novel and familiar) was computed. Object exploration was defined as the orientation of the nose to the object at a distance of less than 2 cm. A discrimination index was calculated as the difference between the times spent exploring either the novel or familiar object divided by the total time exploring the two objects. A higher discrimination index is considered to reflect greater memory retention for the familiar object. Pharmacological treatment with SM2 and SM4 was performed 30 minutes before training.

For experiment [3], the system named is Fmr1-KO mice. Nature of the experiment: Homing behaviour test (social discrimination, cognition). Particulars: 13 post-natal days; for latency time (homing test): 0.175 mg/kg BW intraperitoneal, FIG. 2A. How it is done:
The experiments were performed following the ARRIVE (Animals in Research: Reporting In Vivo Experiments) guidelines. Fmr1-knockout (KO) and WT mice on a C57BL/6J congenic background were obtained from Prof. R. Willemsen. All animals were generated and housed in groups of 4 in standard laboratory conditions (22° C., 55±10% humidity, 12-h light/12-h dark diurnal cycles) with food and water provided ad libitum. Experimental testing was performed between 12:00 and 16:30 each day during the 12-h light period. Only male mice and rats were used. Animal care was conducted in accordance with the European Community Directive 2010/63/EU. The experiments were approved by the local ethics committee (Comité d′Ethique en Expérimentation Animale, by the French Ministry of Research. Trimeprazine and opipramol were purchased from Prestwich Library. Both molecules were diluted in DMSO at the stock concentration of 100 mM. All compounds injected intraperitoneally were administered in a volume of 1.5 ml per kg body weight at the amount indicated in the legends of each figure. Homing Behaviour Test: At PND 13, the litter was separated from the dam and kept for 30 min in a temperature-controlled holding cage. Then, each mouse pup was placed into a Plexiglas box whose floor was covered for ⅓ with bedding from the pup's home cage and for ⅔ with clean bedding. The pup was located at the side of the box covered by clean bedding, and its behaviour was videorecorded for 4 min for subsequent analysis. The following parameters were scored using the Observer 3.0 software (Noldus Information Technology): latency (s) to reach the home-cage bedding area; total time (s) spent by the pup in the nest bedding area.

Where [4] appears, read: Fmr1-KO adolescent mice, acute treatment.

The values that follow come from patent US20240050442A1, “TRIMEPRAZINE DERIVATIVES AND COMPOSITIONS COMPRISING THE SAME FOR TREATING A NEUROPSYCHIATRIC DISORDER” (CENTRE NATIONAL DE LA RECHERCHE SCIENTIFIQUE, priority 2020, published 2024).

For the compound `OCCN1CCN(CCCN2c3ccccc3C=Cc3ccccc32)CC1` [SM2, opipramol], the “number of social interactions” value was “does not have a beneficial impact” with Fmr1-KO mice [1] (setting [4]) and “has a negative impact” in the experiment with Fmr1-KO mice [1] (WT adolescent mice). Besides, the discrimination index result in the experiment with Fmr1-KO mice [2] (Fmr1-KO adult mice 8 weeks, 0.18 mg/kg BW intraperitoneal 30 minutes before training, FIG. 3B) is “not normalized”; in the experiment on Fmr1-KO mice [2] (WT adult mice 8 weeks, 0.18 mg/kg BW intraperitoneal 30 minutes before training, FIG. 3B), “worsened the behaviour”. The results for the “latency time (homing test)” value with Fmr1-KO mice [3] (Fmr1-KO infant mice) and in the experiment with Fmr1-KO mice [3] (WT infant mice) were “does not have a beneficial impact” and “has a negative impact”, respectively.

`CC(CN(C)C)CN1c2ccccc2Sc2ccccc21` (centres unmarked) [SM4, Trimeprazine]: the figures for the “number of social interactions” value with Fmr1-KO mice [1] (setting [4]) and with Fmr1-KO mice [1] (WT adolescent mice) were “normalized” and “does not modify the social interaction behaviour”, respectively. The discrimination index result in the experiment with Fmr1-KO mice [2] (Fmr1-KO adult mice 8 weeks, 0.3 mg/kg BW intraperitoneal 30 minutes before training, FIG. 3A) was “Discrimination index is the same in treated WT and Fmr-KO mice”; in the experiment with Fmr1-KO mice [2] (WT adult mice 8 weeks, 0.3 mg/kg BW intraperitoneal 30 minutes before training, FIG. 3A), “has no impact on the behaviour”. Also, the “latency time (time the mouse pups need to find the mother's litter)” value in the experiment with Fmr1-KO mice [3] (Fmr1-KO infant mice, 0.25 mg/kg BW intraperitoneal, FIG. 1A) is reported as “normalized”.
